Converted amounts (≈) assume the structure as drawn. Where two headings read alike, the source gives them in different places.
Experiments:
[1] = test system: A. baumannii; assay: MIC by broth microdilution, A. baumannii (WT); type: cell-based, Acinetobacter baumannii; conditions: for MIC A. baumannii: RPMI medium supplemented with 10% FCS, 35° C. 20 hours; for A. baumannii MIC, WT: Table 4, RPMI + FCS
[2] = test system: S. aureus; assay: MIC by broth microdilution, S. aureus; type: cell-based, Staphylococcus aureus; conditions: cation adjusted Mueller Hinton broth, 35° C. 20 hours
[3] = test system: S. pneumoniae (strain ATCC 49619); assay: MIC by broth microdilution, S. pneumoniae; type: cell-based, Streptococcus pneumoniae; conditions: strain ATCC 49619, cation adjusted Mueller Hinton broth + 5% laked horse blood
[4] = test system: Enterococcus faecium (strain NCTC 12204); assay: MIC by broth microdilution, E. faecium; type: cell-based; conditions: for MIC E. faecium: strain NCTC 12204, cation adjusted Mueller Hinton broth
[5] = test system: A. baumannii RpoB H535Q; assay: microbe, parasite or virus in culture; type: cell-based, Acinetobacter baumannii; conditions: for A. baumannii MIC, RpoB H535Q: Table 4, RPMI + FCS; for MIC: Acinetobacter baumannii, RPOBH535Q, 20 h
[6] = test system: Staphylococcus epidermidis (strain ATCC 12228); assay: MIC by broth microdilution, S. epidermidis; type: cell-based; conditions: for MIC S. epidermidis: strain ATCC 12228, cation adjusted Mueller Hinton broth
[7] = test system: M. tuberculosis (H37Rv strain ATCC 27294); type: cell-based, Mycobacterium tuberculosis
[8] = test system: Enterococcus faecalis (strain ATCC 51575); assay: MIC by broth microdilution, E. faecalis; type: cell-based; conditions: for MIC E. faecalis: strain ATCC 51575, cation adjusted Mueller Hinton broth
[9] = test system: A. baumannii RpoB H535C; assay: microbe, parasite or virus in culture; type: cell-based, Acinetobacter baumannii; conditions: for A. baumannii MIC, RpoB H535C: Table 4, RPMI + FCS; for MIC: Acinetobacter baumannii, RPOBH535C, 20 h
[10] = test system: S. pyogenes (strain IHMA 1117021); assay: MIC by broth microdilution, S. pyogenes; type: cell-based, Streptococcus pyogenes; conditions: strain IHMA 1117021, cation adjusted Mueller Hinton broth + 5% laked horse blood
[11] = test system: M. smegmatis (strain ATCC 700084); assay: MIC, M. smegmatis (BacTiter-Glo); type: cell-based, Mycobacterium smegmatis; conditions: strain ATCC 700084, Middlebrook 7H9 + ADC, 90% growth inhibition, 20 hours
[12] = test system: M. abscessus (strain ATCC 19977); assay: MIC by broth microdilution, M. abscessus; type: cell-based, Mycobacterium abscessus; conditions: strain ATCC 19977, Middlebrook 7H9 broth + ADC
[13] = test system: A. baumannii RpoB H535L; assay: microbe, parasite or virus in culture; type: cell-based, Acinetobacter baumannii; conditions: for A. baumannii MIC, RpoB H535L: Table 4, RPMI + FCS; for MIC: Acinetobacter baumannii, RPOBH535L, 20 h
[14] = test system: H. influenzae (strain ATCC 49247); assay: MIC by broth microdilution, H. influenzae; type: cell-based, Hemophilus influenzae; conditions: for MIC H. influenzae: strain ATCC 49247, Hemophilus test medium broth
[15] = test system: A. baumannii RpoB H535Q/S521T; assay: microbe, parasite or virus in culture; type: cell-based, Acinetobacter baumannii; conditions: Acinetobacter baumannii, RPOBH535Q/S521T
[16] = test system: A. baumannii RpoB L542F; assay: microbe, parasite or virus in culture; type: cell-based, Acinetobacter baumannii; conditions: Acinetobacter baumannii, RPOBL542F, 20 h

COC1C=COC2(C)Oc3c(C)c(O)c4c(c3C2=O)C2=NC3(CCC5CCC(C3)N5C)NC2=C(NC(=O)C(C)=CC=CC(C)C(O)C(C)C(O)C(C)C(OC(C)=O)C1C)C4=O (mixture of isomers) [8 (A + B + C + D)]
MIC A. baumannii [1]: 0.008 µg/mL
A. baumannii MIC, WT [1]: 0.008 µg/mL
MIC S. aureus [2]: 0.03 µg/mL
MIC S. pneumoniae [3]: < 0.002 µg/mL
MIC E. faecium [4]: 0.125 µg/mL
A. baumannii MIC, RpoB H535Q [5]: 0.06 µg/mL
MIC S. epidermidis [6]: < 0.002 µg/mL
MIC M. tuberculosis [7]: 0.01 µg/mL
MIC E. faecalis [8]: 2 µg/mL
A. baumannii MIC, RpoB H535C [9]: 0.125 µg/mL
MIC S. pyogenes [10]: 0.016 µg/mL
MIC M. smegmatis [11]: 1.19 µg/mL
MIC M. abscessus [12]: 32 µg/mL
A. baumannii MIC, RpoB H535L [13]: 1 µg/mL
MIC H. influenzae [14]: 0.125 µg/mL

COC1C=COC2(C)Oc3c(C)c(O)c4c(c3C2=O)C2=NC3(NC2=C(NC(=O)C(C)=CC=CC(C)C(O)C(C)C(O)C(C)C(OC(C)=O)C1C)C4=O)C1CCCC3CNC1 (mixture of isomers) [16 (A + B)]
MIC A. baumannii [1]: < 0.002 µg/mL
A. baumannii MIC, WT [1]: ≤0.002 µg/mL
MIC S. aureus [2]: 0.004 µg/mL
MIC S. pneumoniae [3]: < 0.002 µg/mL
MIC E. faecium [4]: 0.125 µg/mL
A. baumannii MIC, RpoB H535Q [5]: 0.008 µg/mL
MIC S. epidermidis [6]: < 0.002 µg/mL
MIC E. faecalis [8]: 0.5 µg/mL
A. baumannii MIC, RpoB H535C [9]: 0.016 µg/mL
MIC S. pyogenes [10]: < 0.002 µg/mL
MIC M. smegmatis [11]: 0.33 µg/mL
MIC M. abscessus [12]: 4 µg/mL
A. baumannii MIC, RpoB H535L [13]: 1 µg/mL
MIC H. influenzae [14]: 0.06 µg/mL

CO[C@H]1/C=C/O[C@@]2(C)Oc3c(C)c(O)c4c(c3C2=O)C2=NC3(CCCN(C)CC3)NC2=C(NC(=O)/C(C)=C\C=C\[C@H](C)[C@H](O)[C@@H](C)[C@@H](O)[C@@H](C)[C@H](OC(C)=O)[C@@H]1C)C4=O (single isomer, unassigned) [Compound 7A]
MIC A. baumannii [1]: 0.004 µg/mL (≈ 0.00488 µM)
A. baumannii MIC, WT [1]: 0.004 µg/mL
MIC S. aureus [2]: 0.008 µg/mL (≈ 0.00977 µM)
MIC S. pneumoniae [3]: < 0.002 µg/mL
MIC E. faecium [4]: 0.06 µg/mL (≈ 0.0733 µM)
A. baumannii MIC, RpoB H535Q [5]: 0.016 µg/mL
MIC S. epidermidis [6]: < 0.002 µg/mL
MIC M. tuberculosis [7]: 0.01 µg/mL (≈ 0.0122 µM)
MIC E. faecalis [8]: 0.5 µg/mL (≈ 0.611 µM)
A. baumannii MIC, RpoB H535C [9]: 0.03 µg/mL
MIC S. pyogenes [10]: < 0.002 µg/mL
MIC M. smegmatis [11]: 0.54 µg/mL
MIC M. abscessus [12]: 16 µg/mL
A. baumannii MIC, RpoB H535L [13]: 1 µg/mL
MIC H. influenzae [14]: 0.06 µg/mL (≈ 0.0733 µM)

CO[C@H]1/C=C/O[C@@]2(C)Oc3c(C)c(O)c4c(c3C2=O)C2=NC3(CC5CCC(C3)N5C)NC2=C(NC(=O)/C(C)=C\C=C\[C@H](C)[C@H](O)[C@@H](C)[C@@H](O)[C@@H](C)[C@H](OC(C)=O)[C@@H]1C)C4=O (single isomer, unassigned) [Compound 13B]
MIC ([1]; Acinetobacter baumannii, 20 h, read-out: A. baumannii MIC, WT, Table 4, RPMI + FCS): ≤ 0.002 µg/mL
MIC A. baumannii [1]: < 0.002 µg/mL
MIC ([15]; read-out: MIC, RpoB mutation H535Q/S521T, Table 5 part 1 c5, 1st H535Q/S521T isolate, RPMI + 10% FCS): 0.5 µg/mL
MIC ([15]; read-out: MIC, RpoB mutation H535Q/S521T, Table 5 part 1 c6, 2nd H535Q/S521T isolate, RPMI + 10% FCS): 1 µg/mL
MIC S. aureus [2]: 0.016 µg/mL (≈ 0.0193 µM)
MIC ([4]; Enterococcus faecium, NCTC12204, read-out: MIC E. faecium): 0.125 µg/mL (≈ 0.15 µM)
MIC ([5]; read-out: A. baumannii MIC, RpoB H535Q, Table 4, RPMI + FCS): ≤ 0.002 µg/mL
MIC ([5]; read-out: MIC, RpoB mutation H535Q, Table 5 part 1 c2, 1st H535Q isolate, RPMI + 10% FCS): ≤ 0.002 µg/mL
MIC ([5]; read-out: MIC, RpoB mutation H535Q, Table 5 part 1 c3, 2nd H535Q isolate, RPMI + 10% FCS): 4 µg/mL
MIC ([5]; read-out: MIC, RpoB mutation H535Q, Table 5 part 1 c4, 3rd H535Q isolate, RPMI + 10% FCS): 2 µg/mL
MIC ([6]; Staphylococcus epidermidis, ATCC12228, read-out: MIC S. epidermidis): < 0.002 µg/mL
MIC ([16]; read-out: MIC, RpoB mutation L542F, Table 5 part 3 c2, 1st L542F isolate, RPMI + 10% FCS): 0.002 µg/mL
MIC ([16]; read-out: MIC, RpoB mutation L542F, Table 5 part 3 c3, 2nd L542F isolate, RPMI + 10% FCS): 0.125 µg/mL
MIC ([8]; Enterococcus faecalis, ATCC51575, read-out: MIC E. faecalis): 0.5 µg/mL (≈ 0.602 µM)
MIC ([9]; read-out: A. baumannii MIC, RpoB H535C, Table 4, RPMI + FCS): ≤ 0.002 µg/mL
MIC ([9]; read-out: MIC, RpoB mutation H535C, Table 5 part 2 c1, 1st H535C isolate, RPMI + 10% FCS): ≤ 0.002 µg/mL
MIC ([9]; read-out: MIC, RpoB mutation H535C, Table 5 part 2 c2, 2nd H535C isolate, RPMI + 10% FCS): 0.002 µg/mL
MIC ([9]; read-out: MIC, RpoB mutation H535C, Table 5 part 2 c3, 3rd H535C isolate, RPMI + 10% FCS): 0.004 µg/mL
MIC ([9]; read-out: MIC, RpoB mutation H535C, Table 5 part 2 c4, 4th H535C isolate, RPMI + 10% FCS): 0.016 µg/mL
MIC ([13]; read-out: A. baumannii MIC, RpoB H535L, Table 4, RPMI + FCS): 0.03 µg/mL
MIC ([13]; read-out: MIC, RpoB mutation H535L, Table 5 part 2 c5, 1st H535L isolate, RPMI + 10% FCS): 0.004 µg/mL
MIC ([13]; read-out: MIC, RpoB mutation H535L, Table 5 part 2 c6, 2nd H535L isolate, RPMI + 10% FCS): ≤ 0.002 µg/mL
MIC ([13]; read-out: MIC, RpoB mutation H535L, Table 5 part 3 c1, 3rd H535L isolate, RPMI + 10% FCS): 0.25 µg/mL
MIC ([13]; read-out: MIC, RpoB mutation H535L, Table 5 part 3 c6, 4th H535L isolate, RPMI + 10% FCS): 0.03 µg/mL
MIC ([13]; read-out: MIC, RpoB mutation H535L, Table 5 part 3 c7, 5th H535L isolate, RPMI + 10% FCS): 0.03 µg/mL
MIC ([14]; Haemophilus influenzae, ATCC49247, read-out: MIC H. influenzae): 0.125 µg/mL (≈ 0.15 µM)

CCCN1C2CCC1CC1(C2)N=C2C(=C3NC(=O)/C(C)=C\C=C\[C@H](C)[C@H](O)[C@@H](C)[C@@H](O)[C@@H](C)[C@H](OC(C)=O)[C@H](C)[C@@H](OC)/C=C/O[C@@]4(C)Oc5c(C)c(O)c(c2c5C4=O)C3=O)N1 (single isomer, unassigned) [Compound 20B]
MIC A. baumannii [1]: < 0.002 µg/mL
A. baumannii MIC, WT [1]: ≤0.002 µg/mL
MIC S. aureus [2]: 0.004 µg/mL (≈ 0.00466 µM)
MIC S. pneumoniae [3]: < 0.002 µg/mL
MIC E. faecium [4]: 0.5 µg/mL (≈ 0.582 µM)
A. baumannii MIC, RpoB H535Q [5]: 0.004 µg/mL
MIC S. epidermidis [6]: < 0.002 µg/mL
MIC M. tuberculosis [7]: 0.01 µg/mL (≈ 0.0116 µM)
MIC E. faecalis [8]: 1 µg/mL (≈ 1.16 µM)
A. baumannii MIC, RpoB H535C [9]: 0.008 µg/mL
MIC S. pyogenes [10]: < 0.002 µg/mL
MIC M. smegmatis [11]: 0.29 µg/mL
MIC M. abscessus [12]: 8 µg/mL
A. baumannii MIC, RpoB H535L [13]: 0.5 µg/mL
MIC H. influenzae [14]: 0.25 µg/mL (≈ 0.291 µM)

CO[C@H]1/C=C/O[C@@]2(C)Oc3c(C)c(O)c4c(c3C2=O)C2=NC3(NC2=C(NC(=O)/C(C)=C\C=C\[C@H](C)[C@H](O)[C@@H](C)[C@@H](O)[C@@H](C)[C@H](OC(C)=O)[C@@H]1C)C4=O)C1CN(C)CC3CN(C)C1 (stereo partly shown) [Compound 18]
MIC A. baumannii [1]: 0.008 µg/mL (≈ 0.0093 µM)
A. baumannii MIC, WT [1]: 0.008 µg/mL
MIC S. aureus [2]: 0.016 µg/mL (≈ 0.0186 µM)
MIC S. pneumoniae [3]: < 0.002 µg/mL
MIC E. faecium [4]: 0.125 µg/mL (≈ 0.145 µM)
A. baumannii MIC, RpoB H535Q [5]: 0.03 µg/mL
MIC S. epidermidis [6]: < 0.002 µg/mL
MIC M. tuberculosis [7]: 0.01 µg/mL (≈ 0.0116 µM)
MIC E. faecalis [8]: 2 µg/mL (≈ 2.33 µM)
A. baumannii MIC, RpoB H535C [9]: 0.25 µg/mL
MIC S. pyogenes [10]: < 0.002 µg/mL
MIC M. smegmatis [11]: 1.11 µg/mL
MIC M. abscessus [12]: 32 µg/mL
A. baumannii MIC, RpoB H535L [13]: 4 µg/mL
MIC H. influenzae [14]: 0.125 µg/mL (≈ 0.145 µM)
